Some targets named below: ABL1 (Homo sapiens, UniProt P00519); AKT3 (Homo sapiens, UniProt Q9Y243); CaMK1g (Homo sapiens, UniProt Q96NX5); CaMKK2 (Homo sapiens, UniProt Q96RR4); DAPK1 (Homo sapiens, UniProt P53355); GPRK5 (Homo sapiens, UniProt P34947).
What all share (conditions): binder
For a further assay, the target named is T1, CaMK4 (Homo sapiens, UniProt Q16566).
T1 sequence (Q16566 1-473): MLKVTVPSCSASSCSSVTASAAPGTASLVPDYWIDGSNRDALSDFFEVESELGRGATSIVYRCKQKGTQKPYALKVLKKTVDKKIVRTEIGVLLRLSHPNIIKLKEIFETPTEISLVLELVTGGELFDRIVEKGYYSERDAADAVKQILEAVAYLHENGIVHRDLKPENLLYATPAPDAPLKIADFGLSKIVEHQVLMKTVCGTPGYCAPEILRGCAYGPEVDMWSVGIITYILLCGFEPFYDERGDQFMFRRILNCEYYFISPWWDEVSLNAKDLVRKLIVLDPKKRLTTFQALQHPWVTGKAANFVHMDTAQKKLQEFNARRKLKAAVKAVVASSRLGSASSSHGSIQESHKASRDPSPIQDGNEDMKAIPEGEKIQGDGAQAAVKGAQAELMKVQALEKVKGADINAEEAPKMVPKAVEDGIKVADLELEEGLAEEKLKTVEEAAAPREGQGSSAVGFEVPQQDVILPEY

Another assay concerns the target T2, DCAMKL1 (Homo sapiens, UniProt O15075).
T2 sequence (O15075 1-740): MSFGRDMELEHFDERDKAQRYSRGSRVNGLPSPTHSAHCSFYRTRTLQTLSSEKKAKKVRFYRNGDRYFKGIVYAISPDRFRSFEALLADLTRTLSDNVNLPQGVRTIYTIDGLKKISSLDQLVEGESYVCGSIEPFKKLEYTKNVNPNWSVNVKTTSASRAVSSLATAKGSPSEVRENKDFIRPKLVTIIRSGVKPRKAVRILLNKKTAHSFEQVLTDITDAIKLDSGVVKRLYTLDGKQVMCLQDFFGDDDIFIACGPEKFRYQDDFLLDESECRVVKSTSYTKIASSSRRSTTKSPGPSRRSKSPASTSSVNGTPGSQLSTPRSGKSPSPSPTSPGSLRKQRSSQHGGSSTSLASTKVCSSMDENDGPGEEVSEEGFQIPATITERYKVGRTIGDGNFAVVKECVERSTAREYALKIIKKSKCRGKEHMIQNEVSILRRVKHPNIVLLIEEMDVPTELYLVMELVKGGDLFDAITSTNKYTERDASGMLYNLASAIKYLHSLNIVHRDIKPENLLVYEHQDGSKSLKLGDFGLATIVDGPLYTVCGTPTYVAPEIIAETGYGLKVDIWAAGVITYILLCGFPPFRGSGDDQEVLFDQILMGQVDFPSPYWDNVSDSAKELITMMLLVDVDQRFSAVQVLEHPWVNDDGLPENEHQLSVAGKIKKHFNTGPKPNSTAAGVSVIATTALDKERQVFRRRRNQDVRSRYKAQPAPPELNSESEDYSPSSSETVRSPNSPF

A further assay deals with T3, DMPK1 (Homo sapiens, UniProt Q09013).
T3 sequence (Q09013 1-629): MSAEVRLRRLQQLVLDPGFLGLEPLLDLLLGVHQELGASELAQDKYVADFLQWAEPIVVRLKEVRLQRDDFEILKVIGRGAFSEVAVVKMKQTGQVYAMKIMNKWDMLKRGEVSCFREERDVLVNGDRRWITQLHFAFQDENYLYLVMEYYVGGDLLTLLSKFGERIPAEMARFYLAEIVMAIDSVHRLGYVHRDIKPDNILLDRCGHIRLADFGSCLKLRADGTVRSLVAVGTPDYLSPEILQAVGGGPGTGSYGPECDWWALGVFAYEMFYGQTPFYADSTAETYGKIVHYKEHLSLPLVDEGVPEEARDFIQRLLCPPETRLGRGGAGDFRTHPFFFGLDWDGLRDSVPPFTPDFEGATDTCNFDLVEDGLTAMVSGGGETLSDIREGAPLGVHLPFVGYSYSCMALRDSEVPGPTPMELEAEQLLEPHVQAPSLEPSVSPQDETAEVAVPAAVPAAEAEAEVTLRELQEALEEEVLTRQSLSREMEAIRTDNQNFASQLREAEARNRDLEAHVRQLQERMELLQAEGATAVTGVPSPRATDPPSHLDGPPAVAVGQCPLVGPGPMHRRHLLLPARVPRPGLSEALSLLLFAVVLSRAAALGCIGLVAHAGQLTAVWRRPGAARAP

A further assay deals with T4, PHKG2 (Homo sapiens, UniProt P15735).
T4 sequence (P15735 1-406): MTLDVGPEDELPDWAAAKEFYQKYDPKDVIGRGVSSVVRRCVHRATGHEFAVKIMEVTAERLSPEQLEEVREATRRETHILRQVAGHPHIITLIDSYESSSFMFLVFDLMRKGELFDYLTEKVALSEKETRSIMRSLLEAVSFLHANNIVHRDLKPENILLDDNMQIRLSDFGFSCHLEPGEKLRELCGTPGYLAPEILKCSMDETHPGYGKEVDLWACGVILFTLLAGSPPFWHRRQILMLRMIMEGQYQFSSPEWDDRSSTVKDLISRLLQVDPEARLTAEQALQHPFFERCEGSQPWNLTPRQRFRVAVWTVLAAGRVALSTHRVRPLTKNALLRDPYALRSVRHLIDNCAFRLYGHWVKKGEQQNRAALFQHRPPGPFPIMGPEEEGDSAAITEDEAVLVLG

Sequence of ABL1 (P00519 whole entry): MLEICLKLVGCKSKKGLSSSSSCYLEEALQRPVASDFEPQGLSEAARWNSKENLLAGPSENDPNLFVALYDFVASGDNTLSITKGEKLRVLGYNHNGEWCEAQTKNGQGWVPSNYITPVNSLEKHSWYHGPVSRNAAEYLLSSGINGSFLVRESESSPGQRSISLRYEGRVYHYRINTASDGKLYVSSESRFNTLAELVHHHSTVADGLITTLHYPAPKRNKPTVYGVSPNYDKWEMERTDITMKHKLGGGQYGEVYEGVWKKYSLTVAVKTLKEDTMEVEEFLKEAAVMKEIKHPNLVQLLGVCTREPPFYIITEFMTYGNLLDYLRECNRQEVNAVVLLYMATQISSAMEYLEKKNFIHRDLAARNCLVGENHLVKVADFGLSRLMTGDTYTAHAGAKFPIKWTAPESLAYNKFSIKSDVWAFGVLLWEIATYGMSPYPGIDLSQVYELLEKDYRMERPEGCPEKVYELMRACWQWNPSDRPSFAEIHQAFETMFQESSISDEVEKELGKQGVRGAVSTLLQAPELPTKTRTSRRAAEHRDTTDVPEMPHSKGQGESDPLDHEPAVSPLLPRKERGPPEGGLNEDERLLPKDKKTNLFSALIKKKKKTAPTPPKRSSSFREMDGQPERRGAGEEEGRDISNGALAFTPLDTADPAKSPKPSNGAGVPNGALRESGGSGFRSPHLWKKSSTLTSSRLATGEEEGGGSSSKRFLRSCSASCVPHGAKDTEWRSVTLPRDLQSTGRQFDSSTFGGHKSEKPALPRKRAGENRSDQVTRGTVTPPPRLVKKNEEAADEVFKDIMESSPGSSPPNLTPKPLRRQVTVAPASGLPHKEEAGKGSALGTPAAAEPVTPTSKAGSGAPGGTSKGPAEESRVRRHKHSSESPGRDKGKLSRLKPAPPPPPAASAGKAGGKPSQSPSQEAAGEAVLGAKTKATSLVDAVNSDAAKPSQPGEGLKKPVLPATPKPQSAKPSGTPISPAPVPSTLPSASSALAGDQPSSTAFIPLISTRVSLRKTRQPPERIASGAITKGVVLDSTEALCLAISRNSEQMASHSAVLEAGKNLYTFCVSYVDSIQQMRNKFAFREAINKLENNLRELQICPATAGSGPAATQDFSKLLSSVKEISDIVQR
Sequence of AKT3 (Q9Y243 whole entry): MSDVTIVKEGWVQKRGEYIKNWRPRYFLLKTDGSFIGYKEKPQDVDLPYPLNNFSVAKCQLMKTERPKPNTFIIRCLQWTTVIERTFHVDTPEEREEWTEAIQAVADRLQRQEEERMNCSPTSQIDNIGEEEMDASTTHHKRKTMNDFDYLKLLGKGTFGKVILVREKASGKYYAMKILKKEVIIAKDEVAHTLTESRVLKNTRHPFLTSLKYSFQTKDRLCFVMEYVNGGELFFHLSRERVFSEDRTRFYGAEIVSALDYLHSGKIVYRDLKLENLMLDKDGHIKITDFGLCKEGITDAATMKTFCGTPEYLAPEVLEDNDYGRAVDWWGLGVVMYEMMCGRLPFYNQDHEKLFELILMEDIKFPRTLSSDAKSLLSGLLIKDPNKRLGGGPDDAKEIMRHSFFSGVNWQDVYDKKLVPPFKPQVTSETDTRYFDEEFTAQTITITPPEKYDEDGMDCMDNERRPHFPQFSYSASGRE
Sequence of CaMK1g (Q96NX5 whole entry): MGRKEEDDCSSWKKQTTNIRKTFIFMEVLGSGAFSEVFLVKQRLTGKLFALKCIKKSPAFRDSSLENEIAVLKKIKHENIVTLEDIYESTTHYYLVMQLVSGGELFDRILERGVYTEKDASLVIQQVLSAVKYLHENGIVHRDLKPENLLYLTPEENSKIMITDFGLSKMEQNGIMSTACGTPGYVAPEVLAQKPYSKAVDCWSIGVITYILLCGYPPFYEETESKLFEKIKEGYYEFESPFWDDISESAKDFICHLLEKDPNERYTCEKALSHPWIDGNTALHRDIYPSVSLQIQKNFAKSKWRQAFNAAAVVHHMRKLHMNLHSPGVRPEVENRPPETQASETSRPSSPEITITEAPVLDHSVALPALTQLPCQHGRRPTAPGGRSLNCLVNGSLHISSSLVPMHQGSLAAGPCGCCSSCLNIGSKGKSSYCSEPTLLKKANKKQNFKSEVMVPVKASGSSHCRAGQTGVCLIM
Sequence of DAPK1 (P53355 whole entry): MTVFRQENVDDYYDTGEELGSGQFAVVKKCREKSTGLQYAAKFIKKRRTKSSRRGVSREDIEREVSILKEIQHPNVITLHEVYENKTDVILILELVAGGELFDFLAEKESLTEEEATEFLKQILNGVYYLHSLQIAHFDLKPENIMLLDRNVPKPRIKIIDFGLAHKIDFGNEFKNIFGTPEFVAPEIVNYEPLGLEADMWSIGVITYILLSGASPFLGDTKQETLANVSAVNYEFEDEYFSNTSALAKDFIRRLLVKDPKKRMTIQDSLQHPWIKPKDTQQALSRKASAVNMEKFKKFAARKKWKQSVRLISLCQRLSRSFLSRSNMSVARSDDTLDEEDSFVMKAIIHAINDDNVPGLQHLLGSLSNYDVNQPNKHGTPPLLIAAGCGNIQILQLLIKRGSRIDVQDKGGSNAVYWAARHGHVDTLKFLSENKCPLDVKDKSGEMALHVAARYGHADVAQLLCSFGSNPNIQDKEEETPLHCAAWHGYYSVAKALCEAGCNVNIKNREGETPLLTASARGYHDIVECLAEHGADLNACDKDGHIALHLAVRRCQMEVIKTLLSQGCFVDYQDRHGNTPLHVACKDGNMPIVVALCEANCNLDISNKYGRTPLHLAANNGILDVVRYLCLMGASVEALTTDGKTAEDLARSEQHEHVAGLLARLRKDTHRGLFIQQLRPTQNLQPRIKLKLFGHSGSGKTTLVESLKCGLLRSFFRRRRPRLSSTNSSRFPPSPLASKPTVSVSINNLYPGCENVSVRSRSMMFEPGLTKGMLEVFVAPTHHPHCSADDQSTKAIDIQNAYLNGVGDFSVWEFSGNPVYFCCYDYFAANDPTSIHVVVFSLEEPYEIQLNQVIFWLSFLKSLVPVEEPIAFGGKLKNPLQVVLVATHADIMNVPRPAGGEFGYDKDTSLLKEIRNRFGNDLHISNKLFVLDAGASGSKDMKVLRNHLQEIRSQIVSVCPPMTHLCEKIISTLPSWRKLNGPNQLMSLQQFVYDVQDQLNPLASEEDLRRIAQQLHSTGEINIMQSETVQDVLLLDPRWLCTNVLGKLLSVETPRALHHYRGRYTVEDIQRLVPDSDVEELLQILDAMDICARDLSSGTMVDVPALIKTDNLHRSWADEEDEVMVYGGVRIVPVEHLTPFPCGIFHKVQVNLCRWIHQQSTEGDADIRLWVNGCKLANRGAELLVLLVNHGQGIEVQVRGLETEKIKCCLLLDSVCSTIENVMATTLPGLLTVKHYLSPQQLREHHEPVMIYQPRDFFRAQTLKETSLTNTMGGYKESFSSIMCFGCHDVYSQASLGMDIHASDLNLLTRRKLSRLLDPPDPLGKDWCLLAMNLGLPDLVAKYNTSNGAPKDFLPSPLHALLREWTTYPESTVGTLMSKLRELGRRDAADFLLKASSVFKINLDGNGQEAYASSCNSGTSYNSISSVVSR
Sequence of GPRK5 (P34947 whole entry): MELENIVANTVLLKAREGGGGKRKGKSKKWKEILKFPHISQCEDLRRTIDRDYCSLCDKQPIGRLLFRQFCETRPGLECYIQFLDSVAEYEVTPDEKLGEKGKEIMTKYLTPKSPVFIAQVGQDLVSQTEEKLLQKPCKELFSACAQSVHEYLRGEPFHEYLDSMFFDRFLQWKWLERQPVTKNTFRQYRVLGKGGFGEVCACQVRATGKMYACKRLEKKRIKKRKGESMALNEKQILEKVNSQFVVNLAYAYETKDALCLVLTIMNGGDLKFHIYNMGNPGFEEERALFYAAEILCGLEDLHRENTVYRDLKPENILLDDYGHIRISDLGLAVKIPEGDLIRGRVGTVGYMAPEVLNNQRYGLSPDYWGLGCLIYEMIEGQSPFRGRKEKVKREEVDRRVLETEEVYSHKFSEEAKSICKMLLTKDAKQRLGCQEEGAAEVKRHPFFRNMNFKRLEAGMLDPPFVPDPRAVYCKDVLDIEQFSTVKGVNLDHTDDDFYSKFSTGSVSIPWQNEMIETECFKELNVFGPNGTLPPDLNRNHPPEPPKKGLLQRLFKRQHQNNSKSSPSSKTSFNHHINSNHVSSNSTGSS
Sequence of CaMKK2 (Q96RR4 whole entry): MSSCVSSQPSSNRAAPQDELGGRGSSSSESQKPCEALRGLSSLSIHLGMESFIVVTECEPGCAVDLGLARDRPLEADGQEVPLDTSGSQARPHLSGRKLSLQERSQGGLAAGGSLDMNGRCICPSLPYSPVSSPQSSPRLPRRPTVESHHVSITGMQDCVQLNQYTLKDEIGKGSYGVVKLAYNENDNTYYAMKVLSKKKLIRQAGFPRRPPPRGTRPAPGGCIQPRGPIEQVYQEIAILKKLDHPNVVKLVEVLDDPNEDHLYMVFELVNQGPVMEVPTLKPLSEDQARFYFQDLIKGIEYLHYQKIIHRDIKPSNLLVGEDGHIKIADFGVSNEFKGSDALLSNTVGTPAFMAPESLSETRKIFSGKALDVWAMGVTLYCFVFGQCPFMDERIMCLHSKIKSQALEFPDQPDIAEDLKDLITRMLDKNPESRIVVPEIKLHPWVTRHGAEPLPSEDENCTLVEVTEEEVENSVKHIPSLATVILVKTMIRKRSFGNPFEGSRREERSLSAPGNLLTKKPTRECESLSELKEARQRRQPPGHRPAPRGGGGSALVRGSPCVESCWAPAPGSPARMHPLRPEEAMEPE

On to `Cc1cccc(-c2ccc(-c3cc4cnc(Nc5ccc(F)c(CO)c5)nc4n(CCCCN)c3=O)c(Cl)c2)n1` [compound 33, 8-(4-Aminobutyl)-6-(2-chloro-4-(6-methylpyridin-2-yl)phenyl)-2-((4-fluoro-3-(hydroxymethyl)phenyl)amino)pyrido[2,3-d]pyrimidin-7(8H)-one], for which the “dTm 33” value at ABL1 was 10.6 °C; at AKT3 it was 4.6 °C; on CaMK1g, 6.7 °C; at CaMK4 it was 5.2 °C; on CaMKK2, 4.3 °C; on DAPK1, -1.1 °C. The “dTm 33” value on DCAMKL1 was 1.2 °C; at DMPK1, -4.7 °C; at GPRK5 it was -0.8 °C; at PHKG2, 6.2 °C.

With `COc1ccc(O)c(Nc2ncc3cc(-c4ccc(-c5cccc(C)n5)cc4Cl)c(=O)n(CCCCN)c3n2)c1` [compound 34, 8-(4-Aminobutyl)-6-(2-chloro-4-(6-methylpyridin-2-yl)phenyl)-2-((2-hydroxy-5-methoxy-phenyl)amino)pyrido[2,3-d]pyrimidin-7(8H)-one], the “dTm 34” value at ABL1 is 5.2 °C; on AKT3 it was 1.3 °C; on CaMK1g, 3.8 °C; at CaMK4, 3.9 °C; at CaMKK2 it was 4.3 °C; on DAPK1 it was -0.8 °C. For the same molecule, the “dTm 34” value was -0.3 °C at DCAMKL1, -0.8 °C at DMPK1, -0.7 °C on GPRK5 and 3.5 °C on PHKG2.

Regarding `COc1cc(N2CCOCC2)ccc1Nc1ncc2cc(-c3ccc(-c4cccc(C)n4)cc3Cl)c(=O)n(CCCCN)c2n1` [compound 35, 8-(4-Aminobutyl)-6-(2-chloro-4-(6-methylpyridin-2-yl)phenyl)-2-((2-methoxy-4-morpholino-phenyl)amino)pyrido[2,3-d]pyrimidin-7(8H)-one], the “dTm 35” value on ABL1 is 5.8 °C; at AKT3, 1.0 °C; on CaMK1g, 7.1 °C; at CaMK4, 5.7 °C; on CaMKK2, 6.9 °C; on DAPK1 it was -2.1 °C. Moreover, the “dTm 35” value at DCAMKL1 is 2.0 °C; at DMPK1, -2.1 °C; at GPRK5, -2.1 °C; at PHKG2 it was 8.8 °C.

Regarding `COc1cc(N2CCN(C)CC2)ccc1Nc1ncc2cc(-c3ccc(-c4cccc(C)n4)cc3Cl)c(=O)n(CCCCN)c2n1` [compound 36, 8-(4-Aminobutyl)-6-(2-chloro-4-(6-methylpyridin-2-yl)phenyl)-2-((2-methoxy-4-(4-methylpiperazin-1-yl)phenyl)amino)pyrido[2,3-d]pyrimidin-7(8H)-one], the “dTm 36” value is 5.0 °C at ABL1; 1.0 °C on AKT3; 7.0 °C on CaMK1g; 3.2 °C at CaMK4; 5.8 °C on CaMKK2; -1.2 °C on DAPK1. Also, the “dTm 36” value on DCAMKL1 is 1.3 °C; at DMPK1, -1.5 °C; on GPRK5, -1.3 °C; on PHKG2 it was 8.0 °C.

For the origin of these results see article doi:10.1101/2023.11.24.568596v1 (biorxiv, 2023).
